# From the supplement of paper PMC12613149
# Tests used:
# [1] = reversed-phase LC retention time (C18, 15 min MeOH gradient); higher = more hydrophobic / later elution
# Procedure: (§1)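 Reference mixture of environmental contaminants analysed by RP-LC (BEH C18, 50 °C; ESI+ with water/MeOH plus formic acid and ammonium formate, ESI- with ammonium bicarbonate) coupled to a timsTOF Pro 2 with trapped ion mobility in nitrogen (ramp/accumulation 100 ms). CCS was calibrated with Agilent tune mix (CCS compendium) and averaged over five injections at 0.5-500 ng/mL. The table reports the lowest-CCS (putative monomer) peak; retention times are on the same gradient.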
# [2] = collision cross section (TIMS, N2 drift gas) of the primary ion; higher = larger gas-phase ion size
# Procedure: as §1
# [3] = ionization mode: ESI+, ion species: [M+H]+
# [4] = ionization mode: ESI-, ion species: [M-H]-
# [5] = ionization mode: ESI+, ion species: [M]+
SMILES,"reversed-phase LC retention time [1, 3] [min]","collision cross section [2, 3] [Å²]","reversed-phase LC retention time [1, 4] [min]","collision cross section [2, 4] [Å²]","reversed-phase LC retention time [1, 5] [min]","collision cross section [2, 5] [Å²]"
CC(C1CC1)C(O)(Cn1cncn1)c1ccc(Cl)cc1 (configuration not stated) [Cyproconazole_2],14.6,170.04,–,–,–,–
CC(=O)C1(O)CCC2C3CCC4=CC(=O)CCC4(C)C3CCC21C (stereo not drawn) [17alpha-Hydroxyprogesterone],14.5,183.52,14.8,185.03,–,–
"C[C@]12CCC(=O)C=C1CC[C@@H]1[C@@H]2CC[C@]2(C)C(=O)CC[C@@H]12 [4-Androstene-3,17-dione]",13.9,172.73,–,–,–,–
CC[C@H]1OC(=O)[C@H](C)[C@@H](O[C@H]2C[C@@](C)(OC)[C@@H](O)[C@H](C)O2)[C@H](C)[C@@H](O[C@@H]2O[C@H](C)C[C@H](N(C)C)[C@H]2O)[C@](C)(O)C[C@@H](C)C(=NOCOCCOC)[C@H](C)[C@@H](O)[C@]1(C)O [Roxithromycin],14.1,277.32,–,–,–,–
Cc1cccc(Nc2ccncc2S(=O)(=O)NC(=O)NC(C)C)c1 [Torasemide],11.5,188.49,12.4,184.59,–,–
COc1cc(Cc2cnc(N)nc2N)cc(OC)c1OC [Trimethoprim],7.8,173.75,–,–,–,–
"COc1cc(Cl)c(OC)cc1N [4-Chloro-2,5-dimethoxyaniline]",10.3,143.89,–,–,–,–
Oc1c(Br)cc(Cl)cc1Cc1cc(Cl)cc(Br)c1O [Bromochlorophen],–,–,16.3,171.71,–,–
CC(C)Nc1ccc(Nc2ccccc2)cc1 [N-isopropyl-N-phenyl-p-phenylenediamine],8.47,171.67,–,–,–,–
CC(C)(C)C(O)C(Oc1ccc(-c2ccccc2)cc1)n1cncn1 (configuration not stated) [Bitertanol],15.9,192.15,–,–,–,–
CCC(=O)O[C@]1(C(=O)SCF)[C@H](C)C[C@H]2[C@@H]3C[C@H](F)C4=CC(=O)C=C[C@]4(C)[C@@]3(F)[C@@H](O)C[C@@]21C [Fluticasone propionate],15.2,212.76,15.7,209.59,–,–
CC12CC3CC(C)(C1)CC(N)(C3)C2 [Memantine],11.7,144.78,–,–,–,–
COc1cc(C2c3cc4c(cc3C(OC3OC5COC(C)OC5C(O)C3O)C3COC(=O)C23)OCO4)cc(OC)c1O (configuration not stated) [Etoposide_2],–,–,11.7,241.7,–,–
CCCc1nc2c(C)cc(-c3nc4ccccc4n3C)cc2n1Cc1ccc(-c2ccccc2C(=O)O)cc1 [Telmisartan],14.2,231.26,14.6,237.73,–,–
COCC(C)N(C(=O)CCl)c1c(C)csc1C (configuration not stated) [Dimethenamid],14,155.6,–,–,–,–
CC(C)(c1ccccc1)c1cc(-n2nc3ccccc3n2)c(O)c(C(C)(C)c2ccccc2)c1 [UV-234],19.7,219.51,–,–,–,–
Nc1nc(NC2CC2)c2ncn([C@H]3C=C[C@@H](CO)C3)c2n1 [Abacavir],8,168.31,–,–,–,–
CCC(C(N)=O)(C(N)=O)c1ccccc1 [Phenylethylmalonamide],7.73,142.07,–,–,–,–
COCC(=O)Nc1c(I)c(C(=O)NCC(O)CO)c(I)c(C(=O)N(C)CC(O)CO)c1I (configuration not stated) [Iopromide],6.66,215.51,6.74,212.29,–,–
O=C(O)c1cc(Oc2ccc(Cl)cc2Cl)ccc1[N+](=O)[O-] [Bifenox free acid],–,–,13.1,177.92,–,–
CCCCCCCC/C=C\CCCCCCCC(N)=O [Oleic acid amide],18.5,177.48,–,–,–,–

SMILES,"reversed-phase LC retention time [1, 3] [min]","collision cross section [2, 3] [Å²]","reversed-phase LC retention time [1, 4] [min]","collision cross section [2, 4] [Å²]","reversed-phase LC retention time [1, 5] [min]","collision cross section [2, 5] [Å²]"
c1ccc2[nH]nnc2c1 [Benzotriazole],7.82,119.49,–,–,–,–
CNC1=C(c2cccc(C(F)(F)F)c2)C(=O)C(c2ccccc2)O1 (configuration not stated) [Flurtamone],13.9,179.28,14.2,175.08,–,–
CCNc1nc(NC(C)C)nc(SC)n1 [Ametryne],12.8,155.28,–,–,–,–
CS(=O)(=O)c1ccc(C(=O)C2C(=O)CCCC2=O)c(Cl)c1 [Sulcotrione],11.1,175.92,6.87,173.26,–,–
COc1ccc2nc(SCc3ncc(C)c(OC)c3C)[nH]c2c1 [Omeprazole sulfide],11.2,179.62,13.9,181.72,–,–
Cc1ncc([N+](=O)[O-])n1CCO [Metronidazole],5.53,132.43,–,–,–,–
CCCCN(CCCC)CCCC [Tributylamine],10.1,148.84,–,–,–,–
Oc1ccc(Cl)cc1Cc1cc(Cl)ccc1O [Dichlorophen],–,–,15.3,155.04,–,–
"Cn1c(N)nc2c3cccnc3ccc21 [2-Amino-3-methyl-imidazo[4,5-f]quinoline (IQ)]",6.04,138.89,8.79,139.48,–,–
O=C1CCCC2C3CC(CN12)C1CCCCN1C3 (configuration not stated) [Lupanine],5.52,154.3,–,–,–,–
COc1ccc(-c2coc3cc(O)cc(O)c3c2=O)cc1 [Biochanin A],–,–,12.9,166.25,–,–
Nc1c(Cl)c(F)nc(OCC(=O)O)c1Cl [Fluroxypyr],–,–,7.61,139.78,–,–
CCCCCCCCn1sccc1=O [2-Octyl-4-isothiazolin-3-one],14.9,157.49,–,–,–,–
CCCCOC(=O)c1ccccc1C(=O)OCCCC [Dibutylphthalate],16.4,169.98,–,–,–,–
COc1cc2ccc(=O)oc2c(OC)c1OC [Dimethylfraxetin],10.6,147.68,–,–,–,–
CCCCCCCCCCCC(=O)NCCC[N+](C)(C)CC(=O)O [Lauramidopropylbetaine],–,–,–,–,15.9,200.11
CCOC(=O)C1=C(C)NC(C)=C(C(=O)OC)C1c1cccc([N+](=O)[O-])c1 (configuration not stated) [Nitrendipin],14.4,184.47,14.7,183.62,–,–
COc1cc2c(c3oc(=O)c4c(c13)CCC4=O)C1C=COC1O2 (configuration not stated) [Aflatoxin B1],11.4,165.23,–,–,–,–
CCCCc1ncc(/C=C(\Cc2cccs2)C(=O)O)n1Cc1ccc(C(=O)O)cc1 [Eprosartan],11.2,206.28,10,198.36,–,–
"CCCCCCCCCC(=O)N(C)C [N,N-Dimethyldecan-1-amide]",16.1,159.08,–,–,–,–
O=S(=O)(O)c1ccc2[nH]c(-c3ccccc3)nc2c1 [Phenylbenzimidazole sulfonic acid],7.17,166.31,8.23,167.47,–,–

SMILES,"reversed-phase LC retention time [1, 3] [min]","collision cross section [2, 3] [Å²]","reversed-phase LC retention time [1, 4] [min]","collision cross section [2, 4] [Å²]","reversed-phase LC retention time [1, 5] [min]","collision cross section [2, 5] [Å²]"
COCC(C)N(C(=O)C(=O)O)c1c(C)csc1C (configuration not stated) [Dimethenamid OA],11.3,155.28,10.5,161.26,–,–
CC(C)OC(=O)Nc1cccc(Cl)c1 [Chlorpropham],–,–,14.7,147.2,–,–
"CCCCCCCCCCCCCCN(C)C [N,N-Dimethyltetradecylamine]",16.6,179.2,–,–,–,–
CC(Cc1ccc(C(C)(C)C(=O)O)cc1)CN1CC(C)OC(C)C1 (configuration not stated) [Fenpropimorph acid],10.8,177.46,14.3,188.8,–,–
c1ccc2c(c1)[nH]c1cnccc12 [Norharmane],8.24,132.84,12.9,129.43,–,–
COc1cc2ccc(=O)oc2c(O)c1O [Fraxetin],8.29,138.67,–,–,–,–
Nc1ccc(-c2ccc(N)cc2)cc1 [Benzidine],3.98,155.46,–,–,–,–
CCNc1nc(NC(C)(C)C)nc(SC)n1 [Terbutryn],14,160.25,–,–,–,–
N#Cc1cc(Cl)c(O)c(Cl)c1 [Chloroxynil],–,–,6.76,125.1,–,–
COc1nc(C)nc(NC(=O)NS(=O)(=O)c2ccccc2Cl)n1 [Chlorsulfuron],12.1,177.23,9.09,177.5,–,–
CC(C)(C)CC(C)(C)c1ccc(OCCOCC[N+](C)(C)Cc2ccccc2)cc1 [Benzethonium],–,–,–,–,16.3,211.12
CCOC(=O)c1cn2nc(OP(=S)(OCC)OCC)cc2nc1C [Pyrazophos],15.8,187.33,–,–,–,–
N#CCNC(=O)c1cnccc1C(F)(F)F [Flonicamid],7.31,149.83,–,–,–,–
O=P(Oc1ccccc1)(Oc1ccccc1)Oc1ccccc1 [Triphenylphosphate],15.7,172.48,–,–,–,–
Oc1ccc2c(c1)C13CCCCC1(O)C(C2)N(CC1CCC1)CC3 (configuration not stated) [Butorphanol],–,–,16.6,188.37,–,–
CC(C)(C)c1ccc(O)cc1 [4-tert-Butylphenol],–,–,–,137.69,–,–
"N[C@@H](Cc1cc(I)c(Oc2ccc(O)c(I)c2)c(I)c1)C(=O)O [3,3',5-Triiodo-L-thyronine]",–,209.12,–,199.54,–,–
CC(=O)[C@H]1CC[C@H]2[C@@H]3CCC4=CC(=O)CC[C@]4(C)[C@H]3CC[C@]12C [Progesterone],–,180.93,–,–,–,–
CCC(=C(c1ccc(O)cc1)c1ccc(OCCN(C)C)cc1)c1ccccc1 [4-Hydroxytamoxifen],–,202.55,–,214.38,–,–
